Earlier results on 24 compounds are cited in publication PMC11187573, “Identification of SARS-CoV-2 Mpro inhibitors through deep reinforcement learning for de novo drug design and computational chemistry approaches” (RSC Medicinal Chemistry, 2024).

The data set relates to Mpro. Particulars: ML dataset, cited from earlier work.
Setting [1] is: Origin COVID_Moonshot, ref COVID Moonshot.

Read-outs that look alike come from different tables or passages of the source.

For orientation: IC50 means the concentration needed to halve the response being measured. On to `COCc1ccc(N(C(=O)c2c[nH]cn2)C(C(=O)NCCc2cccc(F)c2)c2cccnc2)cc1` (stereo not drawn) [BRU-THA-92256091-23], for which, under setting [1], the IC50 is 62.9 µM.

Take `O=C(NCCc1cccc(F)c1)C(c1cccnc1)N(C(=O)c1c[nH]cn1)c1ccc(C2COC2)cc1` (stereo not drawn) [BRU-THA-92256091-80]: the IC50 under setting [1] was 22.7 µM.

Take `O=C(NCCc1cccc(F)c1)C(c1cccnc1)N(C(=O)c1c[nH]cn1)c1ccc(Cn2cccn2)cc1` (stereo not drawn) [BRU-THA-92256091-86]: under setting [1], the 50% inhibitory concentration (IC50) was 35.5 µM.

In the case of `C[C@H]1COc2c(N3CCN(C)CC3)c(F)cc3c(=O)c(C(=O)O)cn1c23` [CHEMBL33], the IC50 (Origin ChEMBL, ref ChEMBL) was 7.6 µM.

Regarding `O=C(O)c1ccc(S(=O)(=O)c2cc(Br)c(O)c(Br)c2)cc1` [CHEMBL212240], the IC50 (Origin ChEMBL, ref ChEMBL) is 16 µM.

In the case of `Nc1ncc(S(=O)(=O)c2ccc(Cl)cc2)c(N)n1` [CHEMBL213581], the IC50 (Origin ChEMBL, ref ChEMBL) was 6 µM.

For the compound `O=S(=O)(Cc1[nH]c(-c2ccc(Cl)s2)c[s+]1)c1cccs1` [CHEMBL215733], the IC50 (Origin ChEMBL, ref ChEMBL) was 18 µM.

Turning to `O=C(Oc1cncc(Br)c1)c1ccco1` [CHEMBL222234, O=C(c1ccco1)Oc1cc(Br)cnc1, reference compound], for the setting “Origin ChEMBL, ref ChEMBL”, the concentration for half-maximal inhibition (IC50) was 0.05 µM.

In the case of `O=C(Oc1cncc(Cl)c1)c1cscn1` [CHEMBL222628, O=C(c1cscn1)Oc1cc(Cl)cnc1, reference compound], where the note is “Origin ChEMBL, ref ChEMBL”, the IC50 was 0.27 µM.

`O=C(Oc1cncc(Cl)c1)c1ccc(-c2ccc(Cl)cc2)o1` [CHEMBL222769, O=C(c1ccc(-c(cc2)ccc2Cl)o1)Oc1cc(Cl)cnc1, reference compound]: the half-maximal inhibitory concentration (IC50) (Origin ChEMBL, ref ChEMBL) is 0.063 µM.

Regarding `O=C(Oc1cncc(Cl)c1)c1ccco1` [CHEMBL222840, O=C(c1ccco1)Oc1cc(Cl)cnc1, reference compound], for the setting “Origin ChEMBL, ref ChEMBL”, the IC50 was 0.06 µM.

As to `O=C(Oc1cncc(Cl)c1)c1cc2ccccc2s1` [CHEMBL222893, O=C(c1cc(cccc2)c2s1)Oc1cc(Cl)cnc1, reference compound], for the setting “Origin ChEMBL, ref ChEMBL”, the IC50 was 0.095 µM.

For `O=C(Oc1cncc(Cl)c1)c1cc2ccccc2[nH]1` [CHEMBL225515, O=C(c1cc(cccc2)c2[nH]1)Oc1cc(Cl)cnc1, reference compound], the IC50 (Origin ChEMBL, ref ChEMBL) was 0.065 µM.

As for `Cn1sc(=O)n(Cc2ccccc2)c1=O` [CHEMBL284861, CN(C(N1Cc2ccccc2)=O)SC1=O, reference compound], for the setting “Origin ChEMBL, ref ChEMBL”, the IC50 was 0.14 µM.

With `Cc1nn(C)c(NCc2ccc(-c3cccs3)s2)c1[N+](=O)[O-]` [CHEMBL375130], the half-inhibitory concentration (IC50) (Origin ChEMBL, ref ChEMBL) is 20 µM.

`CSc1[nH]nc(NC(=O)c2cccs2)c1S(=O)(=O)c1ccccc1` [CHEMBL378700]: the IC50 (Origin ChEMBL, ref ChEMBL) is 15 µM.

With `O=[N+]([O-])c1cc(C(F)(F)F)ccc1S(=O)(=O)c1ccc(Cl)cc1` [CHEMBL380403], for the setting “Origin ChEMBL, ref ChEMBL”, the IC50 is 12 µM.

Turning to `O=C(Oc1cncc(Cl)c1)c1cc2ccccc2o1` [CHEMBL426898, O=C(c1cc(cccc2)c2o1)Oc1cc(Cl)cnc1, reference compound], under “Origin ChEMBL, ref ChEMBL”, the IC50 is 0.17 µM.

Turning to `Cc1noc(NC(=O)c2ccc(-c3cc(C(F)(F)F)nn3C)s2)c1[N+](=O)[O-]` [CHEMBL427404, Cc1noc(NC(c2ccc(-c3cc(C(F)(F)F)nn3C)s2)=O)c1[N+]([O-])=O, reference compound], under “Origin ChEMBL, ref ChEMBL”, the half-inhibitory concentration (IC50) is 5 µM.

Turning to `Nc1ccc2cc3ccc(N)cc3nc2c1` [CHEMBL465704, CHEMBL55400], the IC50 (Origin ChEMBL, ref ChEMBL) is 0.595 µM.

In the case of `CC[C@H](CO)Nc1nc(NCc2ccc(-c3ccccn3)cc2)c2ncn(C(C)C)c2n1` [CHEMBL518800, CC[C@H](CO)Nc1nc(NCc(cc2)ccc2-c2ncccc2)c2ncn(C(C)C)c2n1, reference compound], where the note is “Origin ChEMBL, ref ChEMBL”, the IC50 was 0.84 µM.

For `C/N=c1/nc(-c2ccccc2)n(-c2ccccc2)s1` [CHEMBL1188627, C/N=C(/N=C1c2ccccc2)\SN1c1ccccc1, reference compound], the IC50 (Origin ChEMBL, ref ChEMBL) was 0.98 µM.

For the compound `Cc1ccc(C)c(-n2sc3cc(F)ccc3c2=O)c1` [CHEMBL1725120, Cc1cc(N2Sc(cc(cc3)F)c3C2=O)c(C)cc1, reference compound], the IC50 (Origin ChEMBL, ref ChEMBL) was 0.02 µM.

Turning to `CCOC(=O)Cc1ccc(-c2ccccc2)cc1` [CHEMBL1886408, CCOC(Cc(cc1)ccc1-c1ccccc1)=O, reference compound], under “Origin ChEMBL, ref ChEMBL”, the IC50 is 0.2 µM.
